Measurements published in PMC4067149 (Biochemistry, 2014).

Target: T1, DEBS AT3 (Saccharopolyspora erythraea, UniProt Q03132)
T1 sequence (Q03132 460-880 limits assumed): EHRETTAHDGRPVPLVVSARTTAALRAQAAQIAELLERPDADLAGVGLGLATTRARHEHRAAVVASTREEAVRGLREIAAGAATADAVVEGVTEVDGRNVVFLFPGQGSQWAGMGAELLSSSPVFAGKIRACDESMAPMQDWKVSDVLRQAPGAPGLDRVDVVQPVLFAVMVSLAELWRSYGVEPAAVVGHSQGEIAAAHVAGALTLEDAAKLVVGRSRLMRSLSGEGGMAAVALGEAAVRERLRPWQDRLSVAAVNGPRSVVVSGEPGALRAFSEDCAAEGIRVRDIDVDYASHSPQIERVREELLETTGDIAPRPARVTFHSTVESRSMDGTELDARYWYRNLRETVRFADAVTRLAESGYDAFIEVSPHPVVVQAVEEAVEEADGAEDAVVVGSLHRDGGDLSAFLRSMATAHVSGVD
Experiment: alpha-KGDH coupled fluorometric NADH assay, hydrolysis
Assay type: biochemical
Conditions: no ACP, pH 7.6, 10% glycerol

CC(C(=O)O)C(=O)SCCNC(=O)CCNC(=O)[C@H](O)C(C)(C)COP(=O)(O)OP(=O)(O)OC[C@H]1O[C@@H](n2cnc3c(N)ncnc32)[C@H](O)[C@@H]1OP(=O)(O)O (stereo partly shown) [MMCoA, methylmalonyl-CoA]
alpha-KGDH coupled fluorometric NADH assay, hydrolysis: DEBS AT3 showed the highest rate of hydrolysis with its natural substrate, methylmalonyl-CoA
